“And” between values parts separate entries of the source, which are not always exact repeats. Identical values can stand only once. Like-named read-outs stand apart in the source and are kept apart here.
Columns and labels:
[1] = Solubility assessment in HBSSg_7.4 and HBSSg_8.5; conditions: for Measured Concentration / Percent of the Nominal Concentration: replicates 1-3
OATP1B3 = OATP1B3 (Homo sapiens, UniProt Q9NPD5); assay: Inhibitor of OATP1B3, probe substrate uptake; conditions: for potency estimated from few doses: read-out: Estimated IC50, OATP1B3
[2] = Chemical stability in HBSSg_7.4 and HBSS_8.5; format: physicochemical
Method: At pre-determined time points, an equal volume of acetonitrile with internal standard was added to each vial, and the mixture was placed at 4° C. until the end of the assay. The peak areas of the test article and IS of each sample were determined by LC-MS/MS, and the ratios of the peak areas (analyte:IS) were calculated.

[3] = Rat drug-drug interaction study TDF + AMX0035: urine recovery; format: in vivo; conditions: Days 1 and 5
Method: Total urine recovery data for Tenofovir, TDF, and PB was calculated for the 24 hour collection period on Days 1 and 5. […] The reported urine recovery data included amount recovered (ng) and percent recovered (%) for […]. Individual and mean Tenofovir, TDF, and PB urine recovery data were presented with SD, reported to three significant figures, and CV %, reported to one decimal place.

[4] = Relevant plasma concentrations for in vitro transporter assessment; format: in vivo
hrCYP2C19 = hrCYP2C19 (Homo sapiens, UniProt P33261); assay: CYP reaction phenotyping with hrCYP2C19 (% remaining); format: in vitro ADME; conditions: hrCYP2C19 20 pmol CYP/mL, 5 μM TA, PB and TUDCA co-incubated
hrCYP3A4 = hrCYP3A4 (Homo sapiens, UniProt P08684); assay: CYP reaction phenotyping with hrCYP3A4 (% remaining); format: in vitro ADME; conditions: hrCYP3A4 20 pmol CYP/mL, 5 μM TA, PB and TUDCA co-incubated
hrCYP2C8 = target: T1, hrCYP2C8 (Homo sapiens, UniProt P10632); assay: CYP reaction phenotyping with hrCYP2C8 (% remaining); format: in vitro ADME; conditions: hrCYP2C8 20 pmol CYP/mL, 5 μM TA, PB and TUDCA co-incubated
T1 sequence (P10632 1-490): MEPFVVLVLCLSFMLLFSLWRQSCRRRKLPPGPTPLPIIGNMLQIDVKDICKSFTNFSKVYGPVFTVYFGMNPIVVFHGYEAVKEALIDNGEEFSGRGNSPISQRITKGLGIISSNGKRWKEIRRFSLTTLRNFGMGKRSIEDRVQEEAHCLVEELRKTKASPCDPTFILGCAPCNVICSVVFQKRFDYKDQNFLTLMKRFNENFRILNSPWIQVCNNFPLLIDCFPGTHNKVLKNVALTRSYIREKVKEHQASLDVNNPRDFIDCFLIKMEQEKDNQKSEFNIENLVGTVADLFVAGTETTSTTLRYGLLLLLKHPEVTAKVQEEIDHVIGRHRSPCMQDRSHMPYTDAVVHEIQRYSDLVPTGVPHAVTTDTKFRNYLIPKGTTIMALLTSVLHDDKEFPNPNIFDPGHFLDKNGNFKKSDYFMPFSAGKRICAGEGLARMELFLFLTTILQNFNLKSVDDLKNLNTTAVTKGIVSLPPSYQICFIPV

[5] = target: CYPs in human liver microsomes (HLM) (Homo sapiens, UniProt P33261); assay: CYP reaction phenotyping in HLM with chemical inhibitors (% remaining); conditions: +NADPH +N3B (CYP2C19)
[6] = system: CYPs in human liver microsomes (HLM); assay: as above
[7] = HBSSg_7.4, target 8005 μM TUDCA, 64447 μM PB
[8] = HBSSg_8.5, target 810 μM TUDCA, 73927 μM PB
[9] = two concentrations per test article

OATP1B3, sequence (Q9NPD5 whole entry): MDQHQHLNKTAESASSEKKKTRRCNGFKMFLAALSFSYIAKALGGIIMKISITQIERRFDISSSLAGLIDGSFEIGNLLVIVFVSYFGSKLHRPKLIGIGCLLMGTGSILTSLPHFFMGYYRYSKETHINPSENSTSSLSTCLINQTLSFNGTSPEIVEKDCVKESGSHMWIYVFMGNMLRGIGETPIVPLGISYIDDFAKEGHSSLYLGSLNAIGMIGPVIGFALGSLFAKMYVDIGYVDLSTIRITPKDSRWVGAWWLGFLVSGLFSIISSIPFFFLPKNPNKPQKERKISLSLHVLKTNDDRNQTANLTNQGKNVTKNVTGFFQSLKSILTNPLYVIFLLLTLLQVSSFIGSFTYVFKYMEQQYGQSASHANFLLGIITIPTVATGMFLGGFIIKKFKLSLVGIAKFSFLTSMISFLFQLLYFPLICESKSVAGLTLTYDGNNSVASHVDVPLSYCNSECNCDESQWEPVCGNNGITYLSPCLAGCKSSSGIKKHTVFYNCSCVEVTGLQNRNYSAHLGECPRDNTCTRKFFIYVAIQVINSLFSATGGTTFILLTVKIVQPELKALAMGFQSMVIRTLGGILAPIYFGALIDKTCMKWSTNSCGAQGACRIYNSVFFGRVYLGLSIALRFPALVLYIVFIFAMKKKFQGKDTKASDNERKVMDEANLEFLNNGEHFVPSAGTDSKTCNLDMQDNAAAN
hrCYP2C19, sequence (P33261 whole entry): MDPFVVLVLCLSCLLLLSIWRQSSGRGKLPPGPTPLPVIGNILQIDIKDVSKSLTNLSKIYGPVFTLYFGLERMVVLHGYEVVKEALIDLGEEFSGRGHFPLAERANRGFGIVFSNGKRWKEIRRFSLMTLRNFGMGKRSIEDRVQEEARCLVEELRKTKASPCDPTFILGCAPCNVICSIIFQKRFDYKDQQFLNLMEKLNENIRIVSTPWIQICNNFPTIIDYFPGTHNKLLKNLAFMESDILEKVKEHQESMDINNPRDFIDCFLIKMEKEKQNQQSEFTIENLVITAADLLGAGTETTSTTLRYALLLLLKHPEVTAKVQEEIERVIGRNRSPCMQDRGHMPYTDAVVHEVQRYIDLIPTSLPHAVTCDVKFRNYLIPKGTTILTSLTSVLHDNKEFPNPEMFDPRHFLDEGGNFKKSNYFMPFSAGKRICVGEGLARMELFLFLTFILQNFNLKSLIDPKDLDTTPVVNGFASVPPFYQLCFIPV
CYPs in human liver microsomes (HLM) (Homo sapiens, UniProt P33261), sequence (P33261 whole entry): as above
hrCYP3A4, sequence (P08684 whole entry): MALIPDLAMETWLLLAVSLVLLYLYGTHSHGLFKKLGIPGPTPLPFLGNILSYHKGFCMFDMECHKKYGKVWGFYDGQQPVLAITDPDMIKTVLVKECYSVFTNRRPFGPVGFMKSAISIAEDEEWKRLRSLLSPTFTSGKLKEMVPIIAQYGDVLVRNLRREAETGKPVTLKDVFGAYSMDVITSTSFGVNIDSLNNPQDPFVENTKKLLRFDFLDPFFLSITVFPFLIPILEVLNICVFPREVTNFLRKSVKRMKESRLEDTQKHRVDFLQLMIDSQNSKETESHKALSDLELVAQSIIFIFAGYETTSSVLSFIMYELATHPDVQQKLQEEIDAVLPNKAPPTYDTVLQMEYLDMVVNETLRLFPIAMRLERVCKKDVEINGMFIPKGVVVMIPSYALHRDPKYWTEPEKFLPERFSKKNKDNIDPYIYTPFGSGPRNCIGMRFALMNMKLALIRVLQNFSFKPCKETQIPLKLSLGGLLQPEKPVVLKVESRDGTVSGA

tauroursodeoxycholic acid [TUDCA]
Soluble up to target concentration ([1]; HBSSg_7.4, 37° C. overnight): ≥ 8005 µM | Measured Concentration [1, 7]: 6710 µM and 6950 µM and 6770 µM | Percent of the Nominal Concentration [1, 7]: 83.8% and 86.8% and 84.6% | Soluble up to target concentration ([1]; HBSSg_8.5, 37° C. overnight): ≥ 810 µM | Measured Concentration [1, 8]: 719 μM and 704 μM (2×) | Percent of the Nominal Concentration [1, 8]: 88.8% and 86.9% (2×) | Uptake activity remaining, OATP1B3 (OATP1B3; 50 μM): roughly 18% | potency estimated from few doses (OATP1B3; estimated from two concentrations): < 50 µM | potency estimated from few doses (OATP1B3; estimated from two doses): < 50 µM | Inhibition of OATP1B3 (OATP1B3; [9]): inhibited | Inhibitor of OATP1B3 (OATP1B3; [9]): Yes | Chemical stability in the tested matrices ([2]; 0.5 μM, 37° C., HBSSg_7.4 and HBSS_8.5): appeared to be stable | Percent of the 0-minute value ([2]; HBSSg_7.4, 0 minutes): 100% | Percent of the 0-minute value ([2]; HBSSg_7.4, 120 minutes): 101% | Percent of the 0-minute value ([2]; HBSSg_7.4, Overnight (~1020-[…])): 95.3% | Percent of the 0-minute value ([2]; HBSSg_8.5, 0 minutes): 100% | Percent of the 0-minute value ([2]; HBSSg_8.5, 120 minutes): 90.8% | Percent of the 0-minute value ([2]; HBSSg_8.5, Overnight (~1020-[…])): 96.5% | Detection in urine [3]: not detected in any urine samples | Plasma Cmax (total [I]1) ([4]; component of AMX0035, highest oral dose TUDCA 1000 mg, PB 3000 mg): 108 µM | Unbound [I]m, max ([4]; projected unbound Iin, max): 3.48 µM | Unbound Cmax (Unbound [I]1) ([4]; projected, from total Cmax and plasma protein binding): 1.62 µM | % Remaining of TA (hrCYP2C19; 0 min): 100% | % Remaining of TA (hrCYP2C19; 5 min): 96.1% | % Remaining of TA (hrCYP2C19; 10 min): 98.7% | % Remaining of TA (hrCYP2C19; 20 min): 94.8% | % Remaining of TA (hrCYP2C19; 30 min): 95.1% | % Remaining of TA (hrCYP3A4; 0 min): 100% | % Remaining of TA (hrCYP3A4; 5 min): 97.1% | % Remaining of TA (hrCYP3A4; 10 min): 92.1% | % Remaining of TA (hrCYP3A4; 20 min): 91.4% | % Remaining of TA (hrCYP3A4; 30 min): 90.9% | % Remaining of TA (hrCYP3A4; 60 min): 91.1% | % Remaining of TA (hrCYP2C8; 0 min): 100% | % Remaining of TA (hrCYP2C8; 5 min): 97.1% | % Remaining of TA (hrCYP2C8; 10 min): 99.3% | % Remaining of TA (hrCYP2C8; 20 min): 101% | % Remaining of TA (hrCYP2C8; 30 min): 101% | % Remaining of TA (hrCYP2C8; 60 min): 99.8% | % remaining of TA in HLM ([5]; 5 min): 106% | % remaining of TA in HLM ([5]; 10 min): 93.0% | % remaining of TA in HLM ([5]; 20 min): 93.1% | % remaining of TA in HLM ([5]; 30 min): 92.1% | % remaining of TA in HLM ([5]; 60 min): 94.5% | Metabolism by the major CYPs in HLM [6]: neither PB nor TUDCA is metabolized | % remaining of TA in HLM ([6]; +NADPH +ketoconazole (CYP3A), 10 min): 110% | % remaining of TA in HLM ([6]; +NADPH +ketoconazole (CYP3A), 20 min): 108% | % remaining of TA in HLM ([6]; +NADPH +ketoconazole (CYP3A), 30 min): 94.1% | % remaining of TA in HLM ([6]; Maximum Metabolism-1: +NADPH −inhibitor, pre-incubated, 5 min): 112% | % remaining of TA in HLM ([6]; Maximum Metabolism-1: +NADPH −inhibitor, pre-incubated, 10 min): 126% | % remaining of TA in HLM ([6]; Maximum Metabolism-1: +NADPH −inhibitor, pre-incubated, 20 min): 123% | % remaining of TA in HLM ([6]; Maximum Metabolism-1: +NADPH −inhibitor, pre-incubated, 30 min): 121% | % remaining of TA in HLM ([6]; Maximum Metabolism-1: +NADPH −inhibitor, pre-incubated, 60 min): 121% | % remaining of TA in HLM ([6]; Maximum Metabolism-2: +NADPH −inhibitor, 5 min): 103% | % remaining of TA in HLM ([6]; Maximum Metabolism-2: +NADPH −inhibitor, 10 min): 103% | % remaining of TA in HLM ([6]; Maximum Metabolism-2: +NADPH −inhibitor, 20 min): 103% | % remaining of TA in HLM ([6]; Maximum Metabolism-2: +NADPH −inhibitor, 30 min): 102% | % remaining of TA in HLM ([6]; Maximum Metabolism-2: +NADPH −inhibitor, 60 min): 96.9% | % remaining of TA in HLM ([6]; Negative Control-1: −NADPH −inhibitor, pre-incubated, 5 min): 117%
